The assay has as its system CD2F1 mice, L1210 leukemia ip, survival T/C. The experiment in a line: NCI In Vivo Anticancer Drug Screen. Data for tumor model L1210 Leukemia (intraperitoneal) in CD2F1 (CDF1) mice. Conditions: higher = longer survival. An outline of the steps: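 Transplantable tumor in mice; compound-treated vs vehicle-treated groups. Read-out = treated/control ratio of the measured endpoint.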

[1] abbreviates: endpoint: mean survival time, dose: 400.0 mg/kg/injection, schedule: Q04DX003 (ip), vehicle: saline with Tween-80.

“And” between values parts separate entries of the source, which are not always exact repeats. Equal entries are not always repeated. Toxic doses and inconclusive results are not listed.

As for `CN1N=C(N)c2cn(C3OC(COP(=O)(O)O)C(O)C3O)c3ncnc1c23` (centres undefined), the T/C (endpoint: mean survival time, dose: 6.25 mg/kg/injection, schedule: Q01DX009 (ip), vehicle: water) was 123 % of control; the T/C (endpoint: mean survival time, dose: 7.81 mg/kg/injection, schedule: Q01DX005 (iv), vehicle: water) is 109 % of control; the T/C (endpoint: mean survival time, dose: 10.0 mg/kg/injection, schedule: Q01DX005 (ip), vehicle: water) is 150 % of control; the T/C (endpoint: mean survival time, dose: 11.73 mg/kg/injection, schedule: Q01DX005 (iv), vehicle: water) was 112 % of control; the T/C (endpoint: mean survival time, dose: 12.5 mg/kg/injection, schedule: Q01DX009 (ip), vehicle: water) was 155 % of control; the T/C (endpoint: mean survival time, dose: 15.63 mg/kg/injection, schedule: Q01DX005 (iv), vehicle: water) is 114 % of control. Further, the T/C is 152 % of control (endpoint: mean survival time, dose: 20.0 mg/kg/injection, schedule: Q01DX005 (ip), vehicle: water); 119 % of control (endpoint: mean survival time, dose: 23.45 mg/kg/injection, schedule: Q01DX005 (iv), vehicle: water); 153 % of control (endpoint: mean survival time, dose: 23.45 mg/kg/injection, schedule: Q01DX009 (ip), vehicle: water); 159 % of control (endpoint: mean survival time, dose: 31.25 mg/kg/injection, schedule: Q01DX009 (ip), vehicle: water); 157 % of control and 163 % of control (endpoint: mean survival time, dose: 40.0 mg/kg/injection, schedule: Q01DX005 (ip), vehicle: water); 151 % of control (endpoint: mean survival time, dose: 46.9 mg/kg/injection, schedule: Q01DX005 (iv), vehicle: water). For the same compound, the T/C reads like this: (endpoint: mean survival time, dose: 46.9 mg/kg/injection, schedule: Q01DX009 (ip), vehicle: water) 156 % of control and 174 % of control; (endpoint: mean survival time, dose: 62.5 mg/kg/injection, schedule: Q01DX005 (iv), vehicle: water) 157 % of control; (endpoint: mean survival time, dose: 62.5 mg/kg/injection, schedule: Q01DX009 (ip), vehicle: water) 161 % of control; (endpoint: mean survival time, dose: 80.0 mg/kg/injection, schedule: Q01DX005 (ip), vehicle: water) 163 % of control and 195 % of control; (endpoint: median survival time, dose: 6.25 mg/kg/injection, schedule: Q03HX024 (ip), vehicle: alkali diluted with water) 156 % of control; (endpoint: median survival time, dose: 12.5 mg/kg/injection, schedule: Q03HX024 (ip), vehicle: alkali diluted with water) 97 % of control. Moreover, the T/C (endpoint: median survival time, dose: 24.0 mg/kg/injection, schedule: Q01DX005 (ip), vehicle: water) is 150 % of control; the T/C (endpoint: median survival time, dose: 24.0 mg/kg/injection, schedule: Q01DX009 (ip), vehicle: water) is 157 % of control; the T/C (endpoint: median survival time, dose: 25.0 mg/kg/injection, schedule: Q01DX001 (ip), vehicle: alkali diluted with water) is 97 % of control; the T/C (endpoint: median survival time, dose: 25.0 mg/kg/injection, schedule: Q01DX009 (ip), vehicle: alkali diluted with water) is 168 % of control; the T/C (endpoint: median survival time, dose: 25.0 mg/kg/injection, schedule: Q04DX003 (ip), vehicle: alkali diluted with water) was 151 % of control; the T/C (endpoint: median survival time, dose: 35.0 mg/kg/injection, schedule: Q01DX001 (ip), vehicle: water) was 120 % of control. Besides, the T/C (endpoint: median survival time, dose: 35.0 mg/kg/injection, schedule: Q01DX005 (oral), vehicle: water) is 95 % of control; the T/C (endpoint: median survival time, dose: 35.0 mg/kg/injection, schedule: Q01DX009 (ip), vehicle: water) is 167 % of control; the T/C (endpoint: median survival time, dose: 35.0 mg/kg/injection, schedule: Q01DX009 (oral), vehicle: water) was 108 % of control; the T/C (endpoint: median survival time, dose: 50.0 mg/kg/injection, schedule: Q01DX001 (ip), vehicle: alkali diluted with water) is 96 % of control; the T/C (endpoint: median survival time, dose: 50.0 mg/kg/injection, schedule: Q01DX009 (ip), vehicle: alkali diluted with water) is 187 % of control; the T/C (endpoint: median survival time, dose: 50.0 mg/kg/injection, schedule: Q04DX003 (ip), vehicle: alkali diluted with water) was 151 % of control. Besides, the T/C is 112 % of control (endpoint: median survival time, dose: 53.0 mg/kg/injection, schedule: Q01DX001 (ip), vehicle: water); 105 % of control (endpoint: median survival time, dose: 53.0 mg/kg/injection, schedule: Q01DX001 (oral), vehicle: water); 155 % of control (endpoint: median survival time, dose: 53.0 mg/kg/injection, schedule: Q01DX005 (iv), vehicle: water); 101 % of control (endpoint: median survival time, dose: 53.0 mg/kg/injection, schedule: Q01DX005 (oral), vehicle: water); 182 % of control (endpoint: median survival time, dose: 53.0 mg/kg/injection, schedule: Q01DX009 (ip), vehicle: water); 101 % of control (endpoint: median survival time, dose: 53.0 mg/kg/injection, schedule: Q01DX009 (oral), vehicle: water). Besides, the T/C was 103 % of control (endpoint: median survival time, dose: 80.0 mg/kg/injection, schedule: Q01DX001 (oral), vehicle: water); 155 % of control (endpoint: median survival time, dose: 80.0 mg/kg/injection, schedule: Q01DX005 (ip), vehicle: water); 158 % of control (endpoint: median survival time, dose: 80.0 mg/kg/injection, schedule: Q01DX005 (iv), vehicle: water); 102 % of control (endpoint: median survival time, dose: 80.0 mg/kg/injection, schedule: Q01DX005 (oral), vehicle: water); 185 % of control (endpoint: median survival time, dose: 80.0 mg/kg/injection, schedule: Q01DX009 (ip), vehicle: water); 106 % of control (endpoint: median survival time, dose: 80.0 mg/kg/injection, schedule: Q01DX009 (oral), vehicle: water). Further, the T/C reads like this: (endpoint: median survival time, dose: 100.0 mg/kg/injection, schedule: Q01DX001 (ip), vehicle: alkali diluted with water) 96 % of control; (endpoint: median survival time, dose: 100.0 mg/kg/injection, schedule: Q01DX009 (ip), vehicle: alkali diluted with water) 200 % of control; (endpoint: median survival time, dose: 100.0 mg/kg/injection, schedule: Q01DX009 (oral), vehicle: alkali diluted with water) 104 % of control; (endpoint: median survival time, dose: 100.0 mg/kg/injection, schedule: Q04DX003 (ip), vehicle: alkali diluted with water) 162 % of control; (endpoint: median survival time, dose: 120.0 mg/kg/injection, schedule: Q01DX001 (oral), vehicle: water) 105 % of control; (endpoint: median survival time, dose: 120.0 mg/kg/injection, schedule: Q01DX005 (ip), vehicle: water) 161 % of control. Also, the T/C (endpoint: median survival time, dose: 120.0 mg/kg/injection, schedule: Q01DX005 (oral), vehicle: water) is 105 % of control; the T/C (endpoint: median survival time, dose: 120.0 mg/kg/injection, schedule: Q01DX009 (ip), vehicle: water) was 150 % of control; the T/C (endpoint: median survival time, dose: 120.0 mg/kg/injection, schedule: Q01DX009 (oral), vehicle: water) is 103 % of control; the T/C (endpoint: median survival time, dose: 180.0 mg/kg/injection, schedule: Q01DX001 (oral), vehicle: water) was 101 % of control; the T/C (endpoint: median survival time, dose: 180.0 mg/kg/injection, schedule: Q01DX005 (oral), vehicle: water) is 107 % of control; the T/C (endpoint: median survival time, dose: 180.0 mg/kg/injection, schedule: Q01DX009 (oral), vehicle: water) was 102 % of control. In addition, the T/C was 103 % of control (endpoint: median survival time, dose: 200.0 mg/kg/injection, schedule: Q01DX009 (oral), vehicle: alkali diluted with water); 150 % of control (endpoint: median survival time, dose: 200.0 mg/kg/injection, schedule: Q04DX003 (ip), vehicle: alkali diluted with water); 101 % of control (endpoint: median survival time, dose: 270.0 mg/kg/injection, schedule: Q01DX001 (oral), vehicle: water); 110 % of control (endpoint: median survival time, dose: 270.0 mg/kg/injection, schedule: Q01DX005 (oral), vehicle: water); 112 % of control (endpoint: median survival time, dose: 270.0 mg/kg/injection, schedule: Q01DX009 (oral), vehicle: water); 114 % of control (endpoint: median survival time, dose: 400.0 mg/kg/injection, schedule: Q01DX009 (oral), vehicle: alkali diluted with water). Also, the T/C is, setting by setting: (endpoint: median survival time, dose: 405.0 mg/kg/injection, schedule: Q01DX001 (oral), vehicle: water) 102 % of control; (endpoint: median survival time, dose: 800.0 mg/kg/injection, schedule: Q01DX009 (oral), vehicle: alkali diluted with water) 120 % of control; (endpoint: median survival time, dose: 1600.0 mg/kg/injection, schedule: Q01DX009 (oral), vehicle: alkali diluted with water) 122 % of control.

For `O=[N+]([O-])c1ccc2c(c1)C(Br)c1cc(Br)ccc1-2` (centres undefined), the T/C (endpoint: mean survival time, dose: 100.0 mg/kg/injection, schedule: Q01DX009 (ip), vehicle: saline with Tween-80) is 93 % of control; the T/C (endpoint: mean survival time, dose: 100.0 mg/kg/injection, schedule: Q04DX003 (ip), vehicle: saline with Tween-80) is 100 % of control; the T/C (endpoint: mean survival time, dose: 200.0 mg/kg/injection, schedule: Q01DX009 (ip), vehicle: saline with Tween-80) is 88 % of control; the T/C (endpoint: mean survival time, dose: 200.0 mg/kg/injection, schedule: Q04DX003 (ip), vehicle: saline with Tween-80) was 100 % of control; the T/C (endpoint: mean survival time, dose: 400.0 mg/kg/injection, schedule: Q01DX009 (ip), vehicle: saline with Tween-80) is 90 % of control; the T/C under setting [1] was 92 % of control.

Take `COc1cc(Cc2cnc(NC(C)=O)nc2NC(C)=O)cc(OC)c1OC`: under setting [1], the T/C is 93 % of control.

Regarding `CC1(C)C2CCC1(CS(=O)(=O)O)C(=O)C2Br.[Ag]` (centres undefined), the T/C (endpoint: mean survival time, dose: 100.0 mg/kg/injection, schedule: Q04DX003 (ip), vehicle: acetone) was 96 % of control.

In the case of `c1cc2c(c(NC3=NCCCO3)c1)CCCC2`, the T/C by setting is: (endpoint: mean survival time, dose: 12.5 mg/kg/injection, schedule: Q04DX003 (ip), vehicle: saline with Tween-80) 97 % of control; (endpoint: mean survival time, dose: 25.0 mg/kg/injection, schedule: Q04DX003 (ip), vehicle: saline with Tween-80) 106 % of control; (endpoint: mean survival time, dose: 50.0 mg/kg/injection, schedule: Q04DX003 (ip), vehicle: saline with Tween-80) 101 % of control.

(Values after PubChem BioAssay AID256 (DTP/NCI, 2004).)
